Measurements as given in patent publication US11096947B2, “Combination products with tyrosine kinase inhibitors and their use” (Novartis AG, priority 2012, dated 2021).

What was measured:
[1] = tested on: HCC827GR5 subcutaneous xenografts; experiment: Efficacy experiments in mice bearing HCC827GR5 subcutaneous xenografts; type: in vivo; details: for antitumor effect as single agent: Discussion; for antitumor effect as single agent / Delta tumor volume / regressions: MET inhibitor 3 mg/kg, gefitinib 25 mg/kg; for T/C: gefitinib 25 mg/kg orally once a day; for T/C / regressions: 13 days; for regressions: orally once a day
Procedure: Experiments were performed in female Hsd: Athymic nude-nu CPB mice obtained from Harlan Winkelmann, Germany. Animally were approximately 11 weeks of age at treatment start and housed under Optimized Hygienic Conditions (OHC) in Macrolon type III cages (max. 5 animals per cage) with free access to food and water.
Cell line identity has been confirmed by SNP genotyping. Cells were grown in RPMI 1640 medium (Amimed #1-41F01-1) supplemented with 10% heat inactivated FCS, (Amimed #2-01F16-1), 2 mM L-glutamine (Amimed #5-10K00-H), 1 mM sodium pyruvate (Amimed #5-60F00-H) and 10 mM HEPES (Gibco #15630). […]. Cells were incubated at 37° C. in a humidified atmosphere with 5% CO2.
HCC827GR5 tumors were established by subcutaneous injection of 5×10^6 cells in 115 μl HBSS (Hank's buffered salt solution) containing 50% Matrigel (v/v) (gelatinous protein mixture secreted by Engelbreth-Holm-Swarm (EHS) mouse sarcoma cells, BD Biosciences, Franklin Lakes, N.J., USA) into the right flank of mice, with a 13 gauge trocar needle under Forene® (Isofluran; Abott, Switzerland) anesthesia. In the efficacy experiments, treatments started when the tumors reached an average size of 150 mm^3, 11 days post tumor implantation. In the PK/PD experiment, treatments were started when the mean tumor size was 450 mm^3, 15 days post tumor implantation.
The application volumes were 10 ml/kg for the single agents and for the vehicle control group or 5 ml/kg when the test compounds were given in combination. All indicated doses refer to free base equivalent of 2-Fluoro-N-methyl-4-[(7-quinolin-6-yl-methyl)-imidazo[1,2-b]triazin-2-yl]benzamide (dihydrochloride salt). […].
Tumor volumes were measured with calipers and determined according to the formula length×diameter^2×π/6. In addition to presenting changed of tumor volumes over the course of treatments, antitumor activity is expressed as T/C % ((mean change of tumor volume of treated animals/mean change of tumor volume of control animals)×100). Regressions (%) were calculated according to the formula ((mean tumor volume at end of treatment−mean tumor volume at start of treatment)/mean tumor volume at start of treatment)×100. Body weights and tumor volumes were recorded twice a week.
Statistics: Were applicable, data is presented as mean±SEM. For all tests, the level of significance was set at p<0.05. For tumor volumes, comparisons between treatment groups and vehicle control group were done using one-way ANOVA followed by Dunnett's test. Pairwise comparisons were done using a one way ANOVA followed by Tukey's test. The level of significance of body weight change within a group between the start and the end of the treatment period was determined using a paired t-test. Comparisons of delta body weighs between treatment and vehicle control groups were performed by a one-way ANOVA followed by a post hoc Dunnett's test. Calculations were performed using GraphPad Prism 4 for Windows (GraphPad Software Inc.). In addition, an approximation of drug interactions was made using the method described by Clarke (Clarke R., Breast Cancer Research and Treatment 46, 255-278 (1997)). This was applied to delta tumor volumes and can estimate interactions from limited data. In short, the combination data was assessed using the method presented by Clarke which can estimate interactions from limited data. For compound A, B or the combination AB (with control group C), antagonism is predicted when the calculation AB/C>A/C×B/C, additive effect: AB/C=A/C×B/C, synergistic interactions are predicted to occur when AB/C<A/C×B/C.
The body weight increase was statistically significant in all groups excepted the combination group (p<0.05, paired t-test).

HCC827 cells = experiment: Proliferation assay (resazurin / AlamarBlue readout) in HCC827 cells; type: cell-based; details: single agent, up to 1 μM
Procedure: A DMSO-only control was included. […] Recombinant human HGF (PeproTech, catalogue number 100-39) was added together with compounds at a constant concentration as indicated in the respective experiments. Cells were incubated for 72 to 96 h and the amount of viable cells was then assessed using a resazurin sodium salt dye reduction readout (commercially known as AlamarBlue® assay, Invitrogen, Life Technologies Corporation, Grand Island, N.Y., USA). Values were normalized and plotted as either “% of control” with the DMSO control set to 100%, or as “fold seeded cells”. In this case a resazurin readout of separate wells with untreated cells was obtained 24 h after seeding in order to determine a “seeded cells” value for normalization. Plotting of the data and curve-fitting were done with GraphPad Prism version 5.00 for Windows (GraphPad Software, Inc., La Jolla, Calif., USA).

HCC827 GR cells = experiment: Proliferation assay (resazurin / AlamarBlue readout) in gefitinib-resistant HCC827 GR cells; type: cell-based; details: monotherapy
Procedure: 24 h later, a 10-point dilution series of each compound was prepared in DMSO. […] A DMSO-only control was included. […] Recombinant human HGF (PeproTech, catalogue number 100-39) was added together with compounds at a constant concentration as indicated in the respective experiments. Cells were incubated for 72 to 96 h and the amount of viable cells was then assessed using a resazurin sodium salt dye reduction readout (commercially known as AlamarBlue® assay, Invitrogen, Life Technologies Corporation, Grand Island, N.Y., USA). Values were normalized and plotted as either “% of control” with the DMSO control set to 100%, or as “fold seeded cells”. In this case a resazurin readout of separate wells with untreated cells was obtained 24 h after seeding in order to determine a “seeded cells” value for normalization.

[2] = tested on: HCC827GR5 subcutaneous xenografts; experiment: Follow-up of HCC827GR5 xenografts after treatment discontinuation or extension; type: in vivo, mice; details: 4 animals
Procedure: FIG. 5: Graphic representation of the change of tumor volumes over time after treatment discontinuation in mice (in vivo) as described in more detail in the Examples. […] Treatments started 11 days post tumor cells implantation and lasted 13 consecutive days. […] Four animals were kept under observation, without any treatment (left panel) while the two other groups of 4 animals each were kept under daily treatment as before (right panel). Tumor volumes and body weights were recorded only once a week. Horizontal lines are set at 100 and 500 mm^3 tumor volumes.
[…]. Treatments started 11 days post tumor cells implantation and lasted 13 consecutive days. […] Four animals were kept under observation, without any treatment (left panel) while the two other groups of 4 animals each were kept under daily treatment as before (right panel). Tumor volumes and body weights were recorded only once a week. Horizontal lines are set at 100 and 500 mm^3 tumor volumes, respectively. […] […]. The tumors in the animals that received the combination therapy continued to regress from a mean volume of 33+/−1.3 to 26.3+/−2.8 mm^3 (representing a mean of 89.2% regression from the initial volume).

[3] = tested on: c-MET-driven or HGF/c-MET-driven xenograft; experiment: c-MET-driven or HGF/c-MET-driven xenograft mouse tumor models; type: in vivo; details: oral dosing
Text: […]. […] […]. […] Importantly, cell lines with simultaneous HGF and c-MET expression are also relatively resistant to EGFR inhibitors compared to cell lines with similar c-MET level that lack HGF expression.

Row | SMILES | antitumor effect as single agent [1] | T/C ([1]; first experiment (FIG. 3)) [%] | Delta tumor volume ([1]; first experiment, Table 1) | T/C ([1]; second experiment (FIG. 4)) [%] | Delta tumor volume ([1]; second experiment, Table 2) | effect on proliferation of the HCC827 cells (HCC827 cells) | effect of single agent on proliferation of HCC827 GR cells (HCC827 GR cells) | regressions ([1]; first experiment (FIG. 3)) [%] | regressions ([1]; second experiment (FIG. 4)) [%] | tumor volume, mean+/−SEM, after treatment discontinuation ([2]; no treatment after day 24 (FIG. 5 left graph)) | tumor volume, mean, under extended daily treatment ([2]; treatment continued after day 24 (FIG. 5 right panel)) | in vivo activity in blocking c-MET phosphorylation and tumor growth [3]
1 | COc1cc2ncnc(Nc3ccc(F)c(Cl)c3)c2cc1OCCCN1CCOCC1 [gefitinib, N-(3-hloro-4-fluorophenyl)-7-methoxy-6-[3-(morpholin-4-yl)propoxy]quinazolin-4-amine, reference compound] | statistically significant antitumor effects, but never regressions | 32.5 | 173.1 | 49.4 | 261 | – | – | – | – | – | – | –
2 | CNC(=O)c1ccc(-c2cnc3ncc(Cc4ccc5ncccc5c4)n3n2)cc1F [2-fluoro-N-methyl-4-[(7-quinolin-6-yl-methyl)-imidazo[1,2-b]triazin-2-yl]benzamide] | slight statistically significant tumor regressions | – | −60.2 | – | −55.7 | did not show any substantial effect | modest | 22.9 | 21.4 | 516+/−112 mm^3 | 400+/−80 mm^3 | significant in vivo activity
